What was measured:
Type in all cases: in vivo
Myzus persicae = test: Green peach aphid (Myzus persicae) systemic test, artificial diet under membrane; details: 72 h, adult aphids, after 3 days, read-out: mortality in comparison with untreated controls
Text: B.6 Green Peach Aphid (Myzus persicae)
For evaluating control of green peach aphid (Myzus persicae) through systemic means the test unit consisted of 96-well-microtiter plates containing liquid artificial diet under an artificial membrane.
The compounds were formulated using a solution containing 75% v/v water and 25% v/v DMSO. Different concentrations of formulated compounds were pipetted into the aphid diet, using a custom built pipetter, at two replications.
After application, 5-8 adult aphids were placed on the artificial membrane inside the microtiter plate wells. The aphids were then allowed to suck on the treated aphid diet and incubated at about 23±1° C. and about 50±5% relative humidity for 3 days. Aphid mortality and fecundity was then visually assessed.

Dichromothrips corbetti = test: Orchid thrips (Dichromothrips corbetti) floral-immersion test; details: adult thrips, 72 hours after treatment, read-out: mortality in comparison with untreated controls
Experimental: B.2 Orchid Thrips (Dichromothrips Corbetti)
Dichromothrips corbetti adults used for bioassay were obtained from a colony maintained continuously under laboratory conditions. For testing purposes, the test compound is diluted in a 1:1 mixture of acetone:water (vol:vol), plus Kinetic HV at a rate of 0.01% v/v.
Thrips potency of each compound was evaluated by using a floral-immersion technique. All petals of individual, intact orchid flowers were dipped into treatment solution and allowed to dry in Petri dishes. Treated petals were placed into individual resealable plastic along with about 20 adult thrips. All test arenas were held under continuous light and a temperature of about 28° C. for duration of the assay. After 3 days, the numbers of live thrips were counted on each petal. The percent mortality was recorded 72 hours after treatment.

Anthonomus grandis = test: Boll weevil (Anthonomus grandis) microtiter plate insect diet test; details: 120 h, egg and larval mortality after 5 days, read-out: mortality in comparison with untreated controls
Experimental: B.1 Boll Weevil (Anthonomus grandis)
For evaluating control of boll weevil (Anthonomus grandis) the test unit consisted of 96-well-microtiter plates containing an insect diet and 5-10 A. grandis eggs.
(§1) The compounds were formulated using a solution containing 75% v/v water and 25% v/v DMSO. Different concentrations of formulated compounds were sprayed onto the insect diet at 5 μl, using a custom built micro atomizer, at two replications.
After application, microtiter plates were incubated at about 25±1° C. and about 75±5% relative humidity for 5 days. Egg and larval mortality was then visually assessed.

Ceratitis capitata = test: Mediterranean fruitfly (Ceratitis capitata) microtiter plate insect diet test; details: 120 h, egg and larval mortality after 5 days, read-out: mortality in comparison with untreated controls
Experimental: B.4 Mediterranean Fruitfly (Ceratitis capitata)
For evaluating control of Mediterranean fruitfly (Ceratitis capitata) the test unit consisted of microtiter plates containing an insect diet and 50-80 C. capitata eggs.
as §1
(§2) After application, microtiter plates were incubated at about 28±1° C. and about 80±5% relative humidity for 5 days. Egg and larval mortality was then visually assessed.

Nephotettix virescens = test: Rice green leafhopper (Nephotettix virescens) spray test on rice seedlings; details: adults, after 72 hours, read-out: mortality in comparison with untreated controls
Experimental: B.7 Rice Green Leafhopper (Nephotettix virescens)
Rice seedlings were cleaned and washed 24 hours before spraying. The active compounds were formulated in 1:1 acetone:water (vol:vol), and 0.01% vol/vol surfactant (Kinetic HV) was added. Potted rice seedlings were sprayed with 5-6 ml test solution, air dried, covered with Mylar cages cages and inoculated with 10 adults. Treated rice plants were kept at about 28-29° C. and relative humidity of about 50-60%. Percent mortality was recorded after 72 hours.

Heliothis virescens = test: Tobacco budworm (Heliothis virescens) microtiter plate insect diet test; details: 120 h, egg and larval mortality after 5 days, read-out: mortality in comparison with untreated controls
Experimental: B.5 Tobacco Budworm (Heliothis virescens)
For evaluating control of tobacco budworm (Heliothis virescens) the test unit consisted of 96-well-microtiter plates containing an insect diet and 15-25 H. virescens eggs.
The compounds were formulated using a solution containing 75% v/v water and 25% v/v DMSO. Different concentrations of formulated compounds were sprayed onto the insect diet at 10 μl, using a custom built micro atomizer, at two replications.
as §2

Spodoptera eridania = test: Southern armyworm (Spodoptera eridania), 2nd instar larvae, foliar spray on lima bean; details: 96 h, 4 days after treatment, read-out: mortality in comparison with untreated controls
Experimental: B.9 Southern Armyworm (Spodoptera eridania), 2nd Instar Larvae
The active compounds were formulated by a Tecan liquid handler in 100% cyclohexanone as a 10,000 ppm solution supplied in tubes. The 10,000 ppm solution was serially diluted in 100% cyclohexanone to make interim solutions. These served as stock solutions for which final dilutions were made by the Tecan in 50% acetone:50% water (v/v) into 5 or 10 ml glass vials. A nonionic surfactant (Kinetic®) was included in the solution at a volume of 0.01% (v/v). The vials were then inserted into an automated electrostatic sprayer equipped with an atomizing nozzle for application to plants/insects.
Lima bean plants (variety Sieva) were grown 2 plants to a pot and selected for treatment at the 1st true leaf stage. Test solutions were sprayed onto the foliage by an automated electrostatic plant sprayer equipped with an atomizing spray nozzle. The plants were dried in the sprayer fume hood and then removed from the sprayer. Each pot was placed into perforated plastic bags with a zip closure. About 10 to 11 armyworm larvae were placed into the bag and the bags zipped closed. […] Mortality and reduced feeding were assessed 4 days after treatment, compared to untreated control plants.

Plutella xylostella = test: Diamond back moth (Plutella xylostella) cabbage leaf dip test; details: foliar, 3rd instar larvae, 72 hours after treatment, read-out: mortality in comparison with untreated controls
Experimental: B.8 Diamond Back Moth (Plutella xylostella)
The active compound is dissolved at the desired concentration in a mixture of 1:1 (vol:vol) distilled water:aceteone. Surfactant (Kinetic HV) is added at a rate of 0.01% (vol/vol). The test solution is prepared at the day of use.
Leaves of cabbage were dipped in test solution and air-dried. Treated leaves were placed in petri dishes lined with moist filter paper and inoculated with ten 3rd instar larvae. Mortality was recorded 72 hours after treatment. Feeding damages were also recorded using a scale of 0-100%.

Aphis craccivora = test: Cowpea aphid (Aphis craccivora) spray test on potted cowpea plants; details: after 72 hours, read-out: mortality in comparison with untreated controls
Experimental: B.3 Cowpea Aphid (Aphis Craccivora)
The active compound is dissolved at the desired concentration in a mixture of 1:1 (vol:vol) distilled water:acetone. Surfactant (Kinetic HV) is added at a rate of 0.01% (vol/vol). The test solution is prepared at the day of use.
Potted cowpea plants were colonized with approximately 50-100 aphids of various stages by manually transferring a leaf tissue cut from infested plant 24 hours before application. Plants were sprayed after the pest population has been recorded. Treated plants are maintained on light carts at about 28° C. Percent mortality was assessed after 72 hours.

CON=Cc1nn(-c2ccc(Cl)c(Cl)c2)cc1CN1CCC(C#N)CC1 (mixture of isomers) [IA-1, 1-[[1-(3,4-dichlorophenyl)-3-[(E/Z)-methoxyiminomethyl]pyrazol-4-yl]methyl]piperidine-4-carbonitrile]
> 75%: mortality at 2500 ppm (Myzus persicae) | mortality at 500 ppm (Dichromothrips corbetti) | mortality at 2500 ppm (Anthonomus grandis) | mortality at 2500 ppm (Ceratitis capitata) | mortality at 500 ppm (Nephotettix virescens) | mortality at 2500 ppm (Heliothis virescens) | mortality at 300 ppm (Spodoptera eridania) | mortality at 500 ppm (Plutella xylostella) | mortality at 500 ppm (Aphis craccivora)

N#CC1CCN(Cc2cn(-c3ccc(Cl)c(Cl)c3)nc2C=NOCC(F)(F)F)CC1 (mixture of isomers) [IA-2, 1-[[1-(3,4-dichlorophenyl)-3-[(E/Z)-2,2,2-trifluoroethoxyiminomethyl]pyrazol-4-yl]methyl]piperidine-4-carbonitrile]
> 75%: mortality at 500 ppm (Dichromothrips corbetti) | mortality at 2500 ppm (Anthonomus grandis) | mortality at 2500 ppm (Ceratitis capitata) | mortality at 500 ppm (Nephotettix virescens) | mortality at 2500 ppm (Heliothis virescens) | mortality at 300 ppm (Spodoptera eridania) | mortality at 500 ppm (Plutella xylostella) | mortality at 500 ppm (Aphis craccivora)
